Results: US20250019445A1, “P-SELECTIN INHIBITION FOR TREATMENT OF CANCER” (Ramot at Tel-Aviv University Ltd., priority 2022, published 2025)

What was measured:
[1] = system: P-selectin-, E-selectin-, and L-selectin-dependent adhesion; details: in humans in vitro; cited from earlier work
[2] = different animal models; wording wraps from r29 ("anti-") to r30; cited from earlier work
[3] = patients, administered systemically; cited from earlier work
[4] = system: Human MDA-BM-231 3D spheroids; experiment: Breast cancer 3D spheroid invasion; format: cell-based; details: co-cultured with brain microenvironment cells; FIG. 7B
A549 spheroids = experiment: Lung cancer spheroid growth and invasion; format: cell-based, human

## O=C(O)Cc1cccc(-c2cc(CCCCCCc3ccc(O[C@H]4O[C@H](CO)[C@@H](O)[C@H](O)[C@@H]4O)c(-c4cccc(CC(=O)O)c4)c3)ccc2O[C@H]2O[C@H](CO)[C@@H](O)[C@H](O)[C@@H]2O)c1 [Bimosiamose]
[1]
  inhibition of selectin-dependent adhesion: been shown to inhibit P-selectin-, E-selectin-, and L-selectin-
[2]
  anti-inflammatory effects: inflammatory effects in different animal models.

## inclacumab: monoclonal antibody directed towards P-selectin
[3]
  tolerability: well tolerated

## COc1ccc(C2CC(c3c(O)cc(C)oc3=O)=NCCS2)c(OC)c1 (stereo not shown) [SELPi, 3-[7-(2,4-Dimethoxyphenyl)-2,3,6,7-tetrahydro-1,4-thiazepin-5-yl]-4-hydroxy-6-methyl-2H-pyran-2-one]
[4]
  spheroid invasion: reduced invasion
A549 spheroids; FIG. 8D
  spheroid growth and invasion in Matrigel: reduced A549 spheroid growth and invasion in Matrigel, in a dose-dependent manner
A549 spheroids; in the presence of human microglia, FIG. 8C
  spheroid growth: inhibits A549 spheroid growth

B1: crizanlizumab: Humanized monoclonal anti-P-selectin antibody. (antibody, chains of the INN, looked up, V domains shown)
VH: QVQLVQSGAEVKKPGASVKVSCKVSGYTFTSYDINWVRQAPGKGLEWMGWIYPGDGSIKYNEKFKGRVTMTVDKSTDTAYMELSSLRSEDTAVYYCARRGEYGNYEGAMDYWGQGTLVTVSS
VL: DIQMTQSPSSLSASVGDRVTITCKASQSVDYDGHSYMNWYQQKPGKAPKLLIYAASNLESGVPSRFSGSGSGTDFTLTISSLQPEDFATYYCQQSDENPLTFGGGTKVEIK
[3]
  tolerability: well tolerated
